# Measured values: US20230295162A1 (EÖTVÖS LORÁND TUDOMÁNYEGYETEM, priority 2020, published 2023)
# Read-outs that look alike come from different tables or passages of the source.
# What was measured:
# [1] = test system: PANC-1 (human pancreatic carcinoma) cells; assay: Impedance-based viability assay (xCELLigence SP), long treatment; format: cell-based; conditions: 72 h, read-out: cytotoxicity expressed in IC50, PANC-1
# From the text: (Gibco®/Invitrogen Corporation, New York, NY, USA).
# Data obtained from each experiment represent mathematical averages.
# [2] = test system: EBC-1 lung cancer cell line; assay: High-throughput screening, CellTiter-Glo cell viability assay at 100 nM; format: cell-based, human; conditions: Homo sapiens, EBC-1, HTS, compounds at 100 nM, 72 h, read-out: cytotoxicity expressed in IC50, EBC-1 (results of High throughput screening)
# Procedure: (§1) EBC-1 (obtained from JRCB, https://cellbank.nibiohn.go.jp/english/) and H2228 (obtained from ATCC https://www.lgcstandards-atcc.org/) cell lines were maintained according to the instructions provided by JRCB and ATCC in a 5% CO2 humidified incubator maintained at 37° C. temperature. Effect of compounds on cell viability was measured via CellTiter-Glo® luminescent cell viability assay (Promega, Madison, WI, USA). Cells were plated at 1000 cells/well onto a flat-bottomed, white 96 well plate (BRANDplates, cat. no.: 781965). After 24 h, cells were treated for 72 h with the compounds at 100 nM concentration. After the treatment, medium was removed and CellTiter-Glo® reagent was added. Untreated cells were used as control. The luminescence signal was recorded using a microplate reader (BioTek Synergy 2 Multi-Mode Reader, BioTek, Winooski, VT, USA). Cell viability data (% of untreated control cells) was evaluated with Microsoft Excel.
# [3] = test system: H2228 lung cancer cell line; assay: as above; format: cell-based, human; conditions: Homo sapiens, NCI-H2228, HTS, compounds at 100 nM, 72 h, read-out: cytotoxicity expressed in IC50, H2228 (results of High throughput screening)
# Procedure: as §1
# [4] = test system: Capan-1 (pancreas, adenocarcinoma) cells; assay: Cell viability assay, CellTiter-Glo (Example 21); format: cell-based, human; conditions: 72 h treatment
# Procedure: (§2) Effect of the selected compounds on cancer cell viability was measured via CellTiter-Glo® luminescent cell viability assay (Promega, Madison, WI, USA) according to the manufacturer's instructions. Cells were plated onto a flat-bottomed, white 96 well plate (BRANDplates®, cat. no.: 781965). Density of the seeded cells was optimized based on their size and growth rate, as the follows: Panc-1:750 cells/well; DU 145, PC-3, Capan-1, MIA PaCa-2, SCC-25, FaDu and EBC-1: 1000 cells/well; LNCaP, Detroit 562, MDA-MB-231 and MDA-MB-453 1500 cells/well. […] After the treatment, the luminescence signal was recorded using a microplate reader (BioTek Synergy 2 Multi-Mode Reader, BioTek, Winooski, VT, USA). Dose-response curves were generated by GraphPad Prism 8.4.2. software using a non-linear regression model (variable slope, four parameters), (see FIGS. 12-51).
# [5] = test system: DU 145 (prostate, carcinoma) cells; assay: Cell viability assay, CellTiter-Glo (Example 21); format: cell-based, human; conditions: 72 h
# Procedure: as §2
# [6] = test system: Detroit 562 (pharynx, carcinoma) cells; assay: Cell viability assay, CellTiter-Glo (Example 21); format: cell-based, human; conditions: 72 h treatment
# Procedure: as §2
# [7] = test system: EBC-1 (lung, squamous cell carcinoma) cells; assay: Cell viability assay, CellTiter-Glo (Example 21); format: cell-based, human; conditions: 72 h treatment
# Procedure: as §2
# [8] = test system: FaDu (pharynx, squamous cell carcinoma) cells; assay: Cell viability assay, CellTiter-Glo (Example 21); format: cell-based, human; conditions: 72 h treatment
# Procedure: as §2
# [9] = test system: LNCaP (prostate, carcinoma) cells; assay: Cell viability assay, CellTiter-Glo (Example 21); format: cell-based, human; conditions: 72 h
# Procedure: as §2
# [10] = test system: MDA-MB-231 (breast, adenocarcinoma) cells; assay: Cell viability assay, CellTiter-Glo (Example 21); format: cell-based, human; conditions: 72 h treatment
# Procedure: as §2
# [11] = test system: MDA-MB-453 (breast, carcinoma) cells; assay: Cell viability assay, CellTiter-Glo (Example 21); format: cell-based, human; conditions: 72 h treatment
# Procedure: as §2
# [12] = test system: MIA PaCa-2 (pancreas, carcinoma) cells; assay: Cell viability assay, CellTiter-Glo (Example 21); format: cell-based, human; conditions: 72 h treatment
# Procedure: as §2
# [13] = test system: PC-3 (prostate, adenocarcinoma) cells; assay: Cell viability assay, CellTiter-Glo (Example 21); format: cell-based, human; conditions: 72 h treatment
# Procedure: as §2
# [14] = test system: Panc-1 (pancreas, carcinoma) cells; assay: Cell viability assay, CellTiter-Glo (Example 21); format: cell-based, human; conditions: 72 h treatment
# Procedure: as §2
# [15] = test system: SCC-25 (tongue, squamous cell carcinoma) cells; assay: Cell viability assay, CellTiter-Glo (Example 21); format: cell-based, human; conditions: 72 h treatment
# Procedure: as §2
# [16] = test system: Panc-1 human cell line; assay: Cytotoxicity on Panc-1, xCELLigence SP, IC50 after 24 h, 48 h, 72 h and 96 h (Example 22)
structure (smiles),measurement,setting,value
"O=C1C2=C(CCN(Cc3cccc(F)c3)C2)N2CCN=C2N1Cc1ccc(F)cc1 [I/6, reference compound]",IC50,[1],< 100 nM
same,IC50,[2],< 100 nM
same,IC50,[3],< 100 nM
same,"Capan-1 (pancreas, adenocarcinoma) cell viability (% of control)",[4]; 3.7 nM,105.9 ± 7.8 % of control
same,"Capan-1 (pancreas, adenocarcinoma) cell viability (% of control)",[4]; 11.1 nM,106.0 ± 8.0 % of control
same,"Capan-1 (pancreas, adenocarcinoma) cell viability (% of control)",[4]; 100 nM,40.1 ± 3.7 % of control
same,"Capan-1 (pancreas, adenocarcinoma) cell viability (% of control)",[4]; 300 nM,37.4 ± 3.5 % of control
same,DU 145 cell viability,[5]; 3.7 nM,96.8 ± 3.7 % of control
same,DU 145 cell viability,[5]; 11.1 nM,93.4 ± 2.2 % of control
same,DU 145 cell viability,[5]; 100 nM,8.0 ± 1.4 % of control
same,DU 145 cell viability,[5]; 300 nM,7.9 ± 1.6 % of control
same,"Detroit 562 (pharynx, carcinoma) cell viability (% of control)",[6]; 3.7 nM,99.8 ± 6.4 % of control
same,"Detroit 562 (pharynx, carcinoma) cell viability (% of control)",[6]; 11.1 nM,50.9 ± 15.2 % of control
same,"Detroit 562 (pharynx, carcinoma) cell viability (% of control)",[6]; 100 nM,31.6 ± 2.1 % of control
same,"Detroit 562 (pharynx, carcinoma) cell viability (% of control)",[6]; 300 nM,33.0 ± 3.4 % of control
same,"EBC-1 (lung, squamous cell carcinoma) cell viability (% of control)",[7]; 3.7 nM,101.0 ± 19.5 % of control
same,"EBC-1 (lung, squamous cell carcinoma) cell viability (% of control)",[7]; 11.1 nM,101.7 ± 3.3 % of control
same,"EBC-1 (lung, squamous cell carcinoma) cell viability (% of control)",[7]; 100 nM,25.1 ± 0.3 % of control
same,"EBC-1 (lung, squamous cell carcinoma) cell viability (% of control)",[7]; 300 nM,24.1 ± 2.4 % of control
same,"FaDu (pharynx, squamous cell carcinoma) cell viability (% of control)",[8]; 3.7 nM,97.9 ± 3.9 % of control
same,"FaDu (pharynx, squamous cell carcinoma) cell viability (% of control)",[8]; 11.1 nM,97.8 ± 5.2 % of control
same,"FaDu (pharynx, squamous cell carcinoma) cell viability (% of control)",[8]; 100 nM,27.3 ± 5.2 % of control
same,"FaDu (pharynx, squamous cell carcinoma) cell viability (% of control)",[8]; 300 nM,25.2 ± 4.6 % of control
same,LNCaP cell viability,[9]; 3.7 nM,101.8 ± 5.6 % of control
same,LNCaP cell viability,[9]; 11.1 nM,97.9 ± 7.3 % of control
same,LNCaP cell viability,[9]; 100 nM,15.4 ± 2.0 % of control
same,LNCaP cell viability,[9]; 300 nM,14.4 ± 0.7 % of control
same,"MDA-MB-231 (breast, adenocarcinoma) cell viability (% of control)",[10]; 3.7 nM,100.5 ± 5.4 % of control
same,"MDA-MB-231 (breast, adenocarcinoma) cell viability (% of control)",[10]; 11.1 nM,99.4 ± 4.1 % of control
same,"MDA-MB-231 (breast, adenocarcinoma) cell viability (% of control)",[10]; 100 nM,57.7 ± 3.8 % of control
same,"MDA-MB-231 (breast, adenocarcinoma) cell viability (% of control)",[10]; 300 nM,57.4 ± 1.7 % of control
same,"MDA-MB-453 (breast, carcinoma) cell viability (% of control)",[11]; 3.7 nM,113.6 ± 9.8 % of control
same,"MDA-MB-453 (breast, carcinoma) cell viability (% of control)",[11]; 11.1 nM,103.7 ± 10.4 % of control
same,"MDA-MB-453 (breast, carcinoma) cell viability (% of control)",[11]; 100 nM,33.9 ± 1.3 % of control
same,"MDA-MB-453 (breast, carcinoma) cell viability (% of control)",[11]; 300 nM,32.0 ± 1.1 % of control
same,"MIA PaCa-2 (pancreas, carcinoma) cell viability (% of control)",[12]; 3.7 nM,101.6 ± 10.8 % of control
same,"MIA PaCa-2 (pancreas, carcinoma) cell viability (% of control)",[12]; 11.1 nM,110.7 ± 6.4 % of control
same,"MIA PaCa-2 (pancreas, carcinoma) cell viability (% of control)",[12]; 100 nM,21.6 ± 9.1 % of control
same,"MIA PaCa-2 (pancreas, carcinoma) cell viability (% of control)",[12]; 300 nM,19.5 ± 7.5 % of control
same,"PC-3 (prostate, adenocarcinoma) cell viability (% of control)",[13]; 3.7 nM,103.6 ± 14.4 % of control
same,"PC-3 (prostate, adenocarcinoma) cell viability (% of control)",[13]; 11.1 nM,108.7 ± 7.7 % of control
same,"PC-3 (prostate, adenocarcinoma) cell viability (% of control)",[13]; 100 nM,35.3 ± 0.5 % of control
same,"PC-3 (prostate, adenocarcinoma) cell viability (% of control)",[13]; 300 nM,34.1 ± 2.0 % of control
same,"Panc-1 (pancreas, carcinoma) cell viability (% of control)",[14]; 3.7 nM,107.8 ± 16.0 % of control
same,"Panc-1 (pancreas, carcinoma) cell viability (% of control)",[14]; 11.1 nM,109.1 ± 4.2 % of control
same,"Panc-1 (pancreas, carcinoma) cell viability (% of control)",[14]; 100 nM,57.1 ± 0.1 % of control
same,"Panc-1 (pancreas, carcinoma) cell viability (% of control)",[14]; 300 nM,57.2 ± 3.2 % of control
same,"SCC-25 (tongue, squamous cell carcinoma) cell viability (% of control)",[15]; 3.7 nM,101.8 ± 4.3 % of control
same,"SCC-25 (tongue, squamous cell carcinoma) cell viability (% of control)",[15]; 11.1 nM,96.2 ± 4.8 % of control
same,"SCC-25 (tongue, squamous cell carcinoma) cell viability (% of control)",[15]; 100 nM,42.5 ± 1.8 % of control
same,"SCC-25 (tongue, squamous cell carcinoma) cell viability (% of control)",[15]; 300 nM,41.5 ± 3.1 % of control
same,IC50,"[16]; PANC-1, 72 h, read-out: IC50 (72 h) [nM]",126 ± 5.96 nM
same,IC50,"[16]; PANC-1, 96 h, read-out: IC50 (96 h) [nM]",75.5 ± 6.76 nM
